Columns and labels:
Type in all cases: in vivo
ferrets [1] = test: Cisplatin-induced emesis in ferrets, test compound i.v.; details: ferret
Description: Both the test compound and cisplatin were prepared and administered in normal saline. The dose of test compound was calculated as the free base.
Emesis was induced in groups of 6 male ferrets weighing between 1.5-2 kg, by intravenous administration of cisplatin at a dose of 10 mg/kg. The onset of emesis occurred between 38 and 75 minutes after injection and over a period of 2 hours the number of vomits/retches (episodes) was in the range 30-62 (average 42±5 vomits/retches per 2 h). Behavioural changes characteristic of emesis were also noted.
The test compound was administered to groups of 6 male ferrets (1.5-2 kg) by intravenous administration at doses of 0.01, 0.1 and 1 mg/kg, immediately prior to administration of cisplatin as described above.

guinea-pigs = test: Gastric emptying in guinea-pigs (passage of barium sulphate spheres, X-ray location); details: guinea pig
Description: Test compound: 1,2,3,9-tetrahydro-9-methyl-3-[(2-methyl-1H-imidazol-1-yl)methyl]-4H-carbazol-4-one hydrochloride dihydrate. The effect of the test compound on gastric emptying was determined in guinea-pigs by following the progress of polystyrene-coated barium sulphate spheres (1 mm diameter) through the gut. The experimental method was based on that described by B. Costall et. al., Eur. J. Pharmacol 91, 197-205, 1983 and B. Cox et. al., Br. J. Pharmacol. 70, 104, 1980.
The spheres (approximatley 30 in number) were administered orally in 0.2 ml carboxymethylcellulose with 0.05 ml glycerine. At the same time, the test compound was administered intraperitoneally at doses of 0.001, 0.01 and 0.1 mg/kg. The control animals received saline, administered intraperitoneally, in place of the test compound. Passage of the spheres through the gut was monitored at 30-60 minute intervals over a period of 2 hours by X-ray location. The number of spheres leaving the stomach was recorded and expressed as a percentage of the total.

ferrets [2] = test: Cisplatin-induced emesis in ferrets, test compound i.p.; details: ferret, cisplatin 9 mg/kg i.p. + test compound 1 mg/kg i.p. 30 minutes before and 1 hour after cisplatin
Description: Thus cisplatin was administered intraperitoneally to a group of 4 male ferrets at a dose of 9 mg/kg, and the time to onset of emesis and the number of emetic episodes were recorded. In a second group of four male ferrets the test compound was administered at a dose of 1 mg/kg i.p. 30 minutes before and 1 hour after intraperitoneal administration of cisplatin.

[3] = cisplatin 10 mg/kg i.v. + test compound 0.01 mg/kg i.v.

Cc1nccn1CC1CCc2c(c3ccccc3n2C)C1=O.Cl.O.O (stereo not drawn) [test compound, 1,2,3,9-tetrahydro-9-methyl-3-[(2-methyl-1H-imidazol-1-yl)methyl]-4H-carbazol-4-one hydrochloride dihydrate]
Duration of emesis (ferrets [1]; [3]): 1 h
Intensity of emesis (ferrets [1]; [3]): 17 ± 2.9 episodes 2 h
Onset of emesis (ferrets [1]; [3]): 89 to 109 min
Emesis and behavioural changes (ferrets [1]; cisplatin 10 mg/kg i.v. + test compound 0.1 mg/kg i.v.): Emesis and behavioural changes were completely
Emesis and behavioural changes (ferrets [1]; cisplatin 10 mg/kg i.v. + test compound 1 mg/kg i.v.): Emesis and behavioural changes were completely
Mean % Increase in gastric emptying (± s.e.) (guinea-pigs; 0.001 mg/kg i.p., 1 hour): 21 ± 8.7%
Mean % Increase in gastric emptying (± s.e.) (guinea-pigs; 0.001 mg/kg i.p., 2 hours): 57 ± 10.5%
Mean % Increase in gastric emptying (± s.e.) (guinea-pigs; 0.01 mg/kg i.p., 1 hour): 33 ± 3.6%
Mean % Increase in gastric emptying (± s.e.) (guinea-pigs; 0.01 mg/kg i.p., 2 hours): 76.5 ± 11.2%
Mean % Increase in gastric emptying (± s.e.) (guinea-pigs; 0.1 mg/kg i.p., 1 hour): 47 ± 7.6%
Mean % Increase in gastric emptying (± s.e.) (guinea-pigs; 0.1 mg/kg i.p., 2 hours): 68 ± 5.0%
Emetic response (onset of emesis, emetic episodes, retches) (ferrets [2]): emetic response completely
